Biological target: urease enzyme (Canavalia ensiformis, UniProt P07374)
Details: for %age Activity at 25 μg (urease inhibition): 25 µg/mL; for %age Activity at 50 μg (urease inhibition): 50 µg/mL

Chain of urease enzyme (P07374 whole entry, looked up): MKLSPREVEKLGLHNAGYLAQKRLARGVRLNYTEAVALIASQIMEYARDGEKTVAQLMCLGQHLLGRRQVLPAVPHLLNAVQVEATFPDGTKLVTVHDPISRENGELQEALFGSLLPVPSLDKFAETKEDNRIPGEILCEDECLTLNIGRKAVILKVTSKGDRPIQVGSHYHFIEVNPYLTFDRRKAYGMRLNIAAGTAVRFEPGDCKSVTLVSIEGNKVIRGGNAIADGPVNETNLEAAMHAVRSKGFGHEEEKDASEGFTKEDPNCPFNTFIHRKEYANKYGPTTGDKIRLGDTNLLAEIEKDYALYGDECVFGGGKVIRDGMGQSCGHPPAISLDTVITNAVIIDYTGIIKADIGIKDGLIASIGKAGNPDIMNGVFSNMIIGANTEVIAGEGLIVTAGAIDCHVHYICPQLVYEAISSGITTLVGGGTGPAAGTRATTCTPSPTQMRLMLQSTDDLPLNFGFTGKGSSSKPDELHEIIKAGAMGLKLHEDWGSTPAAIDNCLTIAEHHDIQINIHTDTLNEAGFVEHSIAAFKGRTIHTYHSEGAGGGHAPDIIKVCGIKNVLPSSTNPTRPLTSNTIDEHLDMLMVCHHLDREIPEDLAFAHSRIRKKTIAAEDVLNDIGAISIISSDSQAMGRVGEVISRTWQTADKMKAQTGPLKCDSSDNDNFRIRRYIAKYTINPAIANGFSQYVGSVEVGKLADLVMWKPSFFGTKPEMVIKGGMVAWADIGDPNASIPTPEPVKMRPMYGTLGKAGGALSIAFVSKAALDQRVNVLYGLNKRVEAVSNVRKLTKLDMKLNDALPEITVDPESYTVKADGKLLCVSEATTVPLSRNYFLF

Compound	%age Activity at 25 μg (urease inhibition)	%age Activity at 50 μg (urease inhibition)
Cc1ccc(-c2csc(C=O)c2)cc1 [2e, 4-p-Tolylthiophene-2-carbaldehyde]	44.5 ± 0.057%	76.5 ± 0.05%
COc1ccc(-c2csc(C=O)c2)cc1 [2f, 4-(4-Methoxyphenyl)thiophene-2-carbaldehyde]	42.3 ± 0.0007%	80.2 ± 0.0017%
N#Cc1cc(-c2csc(C=O)c2)cc(C(F)(F)F)c1 [2d, 3-(5-Formylthiophene-3-yl)-5-(trifloromethyl)benzonitrile]	37 ± 0.0042%	88.7 ± 0.005%
O=Cc1cc(-c2ccc(F)c(Cl)c2)cs1 [2i, 4-(3-Chloro-4-fluorophenyl)thiophene-2-carbaldehyde]	46.2 ± 0.0042%	90.6 ± 0.05%
Cc1cc(C)cc(-c2csc(C=O)c2)c1 [2g, 4-(3,5-Dimethylphenyl)thiophene-2-carbaldehyde]	42.5 ± 0.0070%	87.2 ± 0.5%
Cc1ccc(-c2csc(C=O)c2)s1 [2j, 5-Methyl-2,3-bisthiophene-5-carbaldehyde]	2 ± 0.219%	9.7 ± 0.2%
O=Cc1cc(-c2ccc(Cl)c(Cl)c2)cs1 [2h, 4-(3,4-Dichlorophenyl)thiophene-2-carbaldehyde]	44 ± 0.084%	86.4 ± 0.44%
O=Cc1cc(-c2cc(C(F)(F)F)cc(C(F)(F)F)c2)cs1 [2b, 4-(3,5-Bis(trifloromethyl)phenyl)thiophene-2-carbaldehyde]	35 ± 0.014%	87.0 ± 0.084%
O=Cc1cc(-c2ccc(Cl)s2)cs1 [2c]	44 ± 0.0042%	87.8 ± 0.006%
O=Cc1cc(-c2ccccc2)cs1 [2a, 4-Phenylthiophene-2-carbaldehyde]	45 ± 0.0162%	86.9 ± 0.012%
